{"source": "paper PMC3753754", "about": "“Andrographis paniculata Extract and Andrographolide Modulate the Hepatic Drug Metabolism System and Plasma Tolbutamide Concentrations in Rats” (Evidence-based Complementary and Alternative Medicine : eCAM, 2013)", "key": {"[1]": {"system": "CYP2D", "assay": "Dextromethorphan O-deethylation in liver microsomes of treated rats", "type": "in vivo", "settings": "rat liver microsomes; oral 2 g/kg APE or 50 mg/kg AND daily for 5 days", "method": "(§1) Liver was homogenized (1 : 4, w/v) in an ice-cold potassium phosphate buffer (pH 7.4) containing 7.4 mM K2HPO4, 2.6 mM KH2PO4, 1.15% KCl, and 1 mM phenylmethylsulfonyl fluoride (PMSF). Tissue homogenates were centrifuged at 10,000 ×g for 30 min at 4°C. The resulting supernatant was then centrifuged at 105,000 ×g for 1 h at 4°C. The microsomes thus obtained were washed several times to get rid of possible tolbutamide contamination and this can avoid tolbutamide interference of CYP activity, and the microsomes were then suspended in potassium phosphate buffer (pH 7.7) containing 7.5 mM K2HPO4, 14.5 mM KH2PO4, and 1 mM EDTA. […] Metabolites of each CYP enzyme reaction were determined by LC/MS as reported previously. The contents of total CYP and cytochrome b5 were quantified by the method of Omura and Sato [29]. Enzyme activity is expressed as picomoles of metabolite formed per minute per milligram of protein. The NADPH-CYP reductase activity was measured as described by Phillips and Langdon with the use of cytochrome c as the substrate. The microsomal protein concentration was determined by using a Coomassie Plus protein assay kit (Pierce, Rockford, IL, USA)."}, "[2]": {"system": "CYP2C", "assay": "Diclofenac 4-hydroxylation in liver microsomes of treated rats", "type": "in vivo", "settings": "rat liver microsomes; oral 2 g/kg APE or 50 mg/kg AND daily for 5 days", "method": "as §1"}, "[3]": {"system": "Glutathione S-transferase", "assay": "GST activity in liver of treated rats", "type": "in vivo", "settings": "rat liver; oral 2 g/kg APE or 50 mg/kg AND daily for 5 days", "method": "The microsomal UGT activity was determined by using p-nitrophenol as the substrate. The rate of formation of p-nitrophenol glucuronic acid was measured by HPLC/UV [31]. GST activity was determined spectrophotometrically by measuring the formation rate of GSH conjugates."}, "[4]": {"system": "CYP1A1", "assay": "Ethoxyresorufin O-deethylation in liver microsomes of treated rats", "type": "in vivo", "settings": "rat liver microsomes; oral 2 g/kg APE or 50 mg/kg AND daily for 5 days", "method": "as §1"}, "[5]": {"assay": "Pharmacokinetics of tolbutamide in control, APE-pretreated and andrographolide-pretreated rats", "type": "in vivo, Sprague-Dawley rats", "settings": "rats, 2 g/kg/day APE or 50 mg/kg/day andrographolide for 5 days before 20 mg/kg tolbutamide", "method": "Seven-week-old male Sprague-Dawley rats cannulated in the jugular vein were purchased from the Bio LASCO Experimental Animal Center (Taipei, Taiwan). The animals were fed a standard rat diet and were randomly assigned into control, APE-treated, and andrographolide-treated groups (n = 5). Rats were housed in plastic cages in a room kept at 23 ± 1°C and 60 ± 5% relative humidity with a 12-hour light and dark cycle. Food and drinking water were available ad libitum. Control rats were orally administered methyl cellulose. […] After the 5th daily dose, rats were deprived of food overnight. On day 6, a 20 mg/kg oral dose of tolbutamide, as a solution in Cremophor EL (polyoxyl 35 hydrogenated castor oil, Sigma)/ethanol/water (30/10/60, v/v/v), was administered to each rat. After the administration of tolbutamide, serial blood samples were collected up to 12 h after dosing from each rat. The animals were then killed by exsanguination, and the livers were collected.\nTolbutamide was prepared in a solution of Cremophor EL/ethanol/water (30/10/60, v/v/v). After administration, blood samples (~200 μL) were collected from the tail vein of each rat at 0.25, 0.5, 1, 2, 4, 8, and 12 h after dosing. Plasma was separated from blood by centrifugation (4000 ×g for 20 min at 4°C). An aliquot of 50 μL plasma was mixed with 100 μL acetonitrile and then centrifuged at 10,000 ×g for 15 min at 4°C. The supernatant was used to determine the concentration of tolbutamide by LC/MS. Calibration standards of tolbutamide were prepared by serial dilution of a tolbutamide stock solution with blank plasma, yielding final concentrations of tolbutamide ranging from 1 to 300 μg/mL of plasma.\nThe HPLC system consisted of an Agilent 1100 series LC System (Palo Alto, CA) and an Agilent Zorbax Eclipse XDB-C8 column (3 μm, 3.0 mm × 150 mm), interfaced to an Agilent MSD mass spectrometer equipped with an electrospray ionization source. Column temperature was set at 25°C. The initial mobile phase composition was 30% acetonitrile containing 10 mM ammonium acetate (solvent A) and 70% of 0.1% formic acid (solvent B). The following gradient system was used: 30% A to 50% A (0-1 min), 50% A to 98% A (1–3 min), 98% A (3–9 min), 98% A to 30% A (9-10 min), and 30% A (10–15 min). The flow rate was 0.5 mL/min. Sample injection volume was 10 μL. The MS data acquisition was via selected ion monitoring. The positive ion of the testing compound was selected, and the peak size was measured. The area under the plasma tolbutamide concentration versus time curve (AUC) was calculated by using the trapezoidal method."}}, "note": "Marks after values point to notes of the source that are not given here."}
{"smiles": "C=C1CC[C@@H]2[C@](C)(CO)[C@H](O)CC[C@@]2(C)[C@@H]1C/C=C1/C(=O)OC[C@H]1O", "note": "[andrographolide, Andrographolide]", "values": [{"measurement": "Dextromethorphan O-deethylase (2D)", "setting": "[1]", "value": "79.1 ± 30.4", "unit": "pmol/min/mg protein"}, {"measurement": "Diclofenac 4-hydroxylase (2C)", "setting": "[2]", "value": "43.8 ± 10.5^b pmol/min/mg protein"}, {"measurement": "Glutathione S-transferase activity", "setting": "[3]", "value": "634 ± 62", "unit": "nmol/min/mg protein"}, {"measurement": "Ethoxyresorufin O-deethylase (1A1)", "setting": "[4]", "value": "66.6 ± 13.5^b pmol/min/mg protein"}, {"measurement": "Reduction of the AUC0–12 h of tolbutamide compared with controls", "setting": "[5]", "value": 18, "unit": "%"}]}
